{"source": "paper PMC3140512", "about": "“Identification of Toxoplasma gondii cAMP Dependent Protein Kinase and Its Role in the Tachyzoite Growth” (PLoS ONE, 2011)", "target": "T1, TgPKA-C (T. gondii PKA catalytic subunit; ToxoDB TGGT1_081170) (Toxoplasma gondii, UniProt Q58G65)", "T1 construct": "gene PKA2; entire ORF (343 amino acid residues), GST fusion, wheat germ cell-free expression", "T1 sequence (Q58G65 entry or part of it)": "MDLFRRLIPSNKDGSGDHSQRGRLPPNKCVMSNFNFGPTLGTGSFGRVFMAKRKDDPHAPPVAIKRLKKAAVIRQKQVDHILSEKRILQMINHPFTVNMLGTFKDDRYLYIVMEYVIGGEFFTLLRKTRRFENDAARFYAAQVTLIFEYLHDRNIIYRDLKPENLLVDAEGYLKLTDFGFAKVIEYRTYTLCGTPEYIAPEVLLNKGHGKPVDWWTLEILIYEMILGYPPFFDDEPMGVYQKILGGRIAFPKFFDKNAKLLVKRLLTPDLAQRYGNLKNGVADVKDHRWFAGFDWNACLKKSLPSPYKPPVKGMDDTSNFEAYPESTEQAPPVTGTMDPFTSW", "experiment": "in vitro radiometric kinase assay ([γ-32P]ATP, Histone IIAS substrate) with purified GST-TgPKA-C", "format": "biochemical", "data": [{"smiles": "O=S(=O)(NCCNC/C=C/c1ccc(Br)cc1)c1cccc2cnccc12", "note": "[H89, N-[2-(p-bromocinnamylamino)ethyl]-5-isoquinolinesulfonamide]", "values": [{"measurement": "IC50", "value": 175, "unit": "µM"}]}]}
